Assay results taken from patent publication US20250213574A1, “THERAPEUTIC COMBINATIONS COMPRISING UBIQUITIN- SPECIFIC-PROCESSING PROTEASE 1 (USP1) INHIBITORS AND CHEMOTHERAPY AGENTS” (KSQ Therapeutics, Inc., priority 2022, published 2025).
“And” between values parts separate entries of the source, which are not always exact repeats. Equal values may be shown once.

Legend:
[1] = system: 5637; experiment: Colony formation (CFU) assay, 5637; assay type: cell-based; details: 5637, bladder
Description: (§1) In vitro experiments were conducted using the colony formation unit (CFU) assay on various cell lines. The CFU assay involved first establishing what cell plating density enabled the development of clearly interspersed colonies on a six-well plate when left to grow for around 14 days. […] At or around day 14 when clearly interspersed colonies were visible in the DMSO-treated wells, the cells were fixed and stained using 0.1% crystal violet in 10% ethanol for 20 minutes at room temperature. The plates were imaged then the amount of crystal violet stain in each well was quantified by extracting the crystal violet into 10% acetic acid and the absorbance measured at 565 nm.
(§2) For certain cell lines, multiple IC50 values were taken, and those are separated by commas. Synergy scores are in parentheticals.

[2] = system: HCT116; experiment: Colony formation (CFU) assay, HCT116; assay type: cell-based; details: HCT116, colon; CFU ~14 days; wells with DMSO or 300 nM Compound 1; read-out: Chemotherapy nM IC50s
Description: as §1, §2

[3] = system: U2OS; experiment: Colony formation (CFU) assay, U2OS; assay type: cell-based; details: bone
Description: as §1, §2

[4] = system: various cell lines; experiment: Colony formation (CFU) assay, summary over cell lines of Table 1; assay type: cell-based; details: combination of USP1 inhibitor (Compound 1, 300 nM) and the chemotherapy agent
Description: as §1
In certain cell lines, combinations of the disclosure are synergistic. In some aspects, these combinations are determined to have a Bliss score is about 6, about 7, about 8, about 9, about 10, about 11, about 12, about 13, about 14, about 15, about 16, about 17, about 18, about 19, about 20 or about 25.

[5] = system: HT1376; experiment: Colony formation (CFU) assay, HT1376; assay type: cell-based; details: HT1376, bladder
Description: as §1, §2

[6] = system: UBLC1; experiment: Colony formation (CFU) assay, UBLC1; assay type: cell-based; details: UBLC1, bladder
Description: as §1, §2

[7] = system: UMUC3; experiment: Colony formation (CFU) assay, UMUC3; assay type: cell-based; details: UMUC3, bladder
Description: as §1, §2

[8] = system: NCIH596; experiment: Colony formation (CFU) assay, NCIH596; assay type: cell-based; details: NCIH596, lung
Description: as §1, §2

[9] = system: SUM149PT; experiment: Colony formation (CFU) assay, SUM149PT; assay type: cell-based; details: breast
Description: as §1, §2

[10] = single dose in Balb/c nude mice; Aston W., et al., BMC Cancer 17:684 (2017); cited from earlier work
[11] = system: HBCx9; experiment: Colony formation (CFU) assay, HBCx9; assay type: cell-based; details: HBCx9, breast
Description: as §1, §2

[12] = system: HCC1806; experiment: Colony formation (CFU) assay, HCC1806; assay type: cell-based; details: HCC1806, breast; CFU ~14 days; wells with DMSO or 300 nM Compound 1; read-out: Chemotherapy nM IC50s (converted)
Description: as §1, §2

[13] = system: 647V; experiment: Colony formation (CFU) assay, 647V; assay type: cell-based; details: bladder
Description: as §1, §2

[14] = system: HBCx8; experiment: Colony formation (CFU) assay, HBCx8; assay type: cell-based; details: HBCx8, breast
Description: as §1, §2

[15] = system: KU1919; experiment: Colony formation (CFU) assay, KU1919; assay type: cell-based; details: KU1919, bladder
Description: as §1, §2

[16] = system: NCIH1650; experiment: Colony formation (CFU) assay, NCIH1650; assay type: cell-based; details: NCIH1650, lung
Description: as §1, §2

[17] = Maximum tolerated dose of Compound 1 cocrystal in combination with cisplatin, non-tumor bearing mice; details: non-tumor bearing female Balb/c nude mice; Compound 1 oral gavage once daily 28 days + cisplatin i.v. once a week days 0, 7, 14, 21
Description: The maximum tolerated dose (MTD) of the USP1 inhibitor Compound 1 cocrystal in combination with cisplatin was evaluated in non-tumor bearing Balb/c nude mice. 6-8 week old female Balb/c nude mice from Beijing Anikeeper Biotech Co. Ltd were randomized into groups of 5 for control, cisplatin (4 mg/kg) alone, cisplatin (5 mg/kg) alone, cisplatin (6 mg/kg) alone, Compound 1 (50 mg/kg) and cisplatin (4 mg/kg) combination group, Compound 1 (100 mg/kg) and cisplatin (4 mg/kg) combination group, Compound 1 (300 mg/kg) and cisplatin (4 mg/kg) combination group, Compound 1 (50 mg/kg) and cisplatin (5 mg/kg) combination group, Compound 1 (100 mg/kg) and cisplatin (5 mg/kg) combination group, Compound 1 (300 mg/kg) and cisplatin (5 mg/kg) combination group, Compound 1 (50 mg/kg) and cisplatin (6 mg/kg) combination group, Compound 1 (100 mg/kg) and cisplatin (6 mg/kg) combination group, and Compound 1 (300 mg/kg) and cisplatin (6 mg/kg) combination group. Mice were treated with the relevant dose of Compound 1 via oral gavage once daily for 28 days or relevant dose of cisplatin via intravenous injection once a week on days 0, 7, 14, and 21. […]
Body weights were measured daily. Tolerability was assessed by monitoring body weight and calculating body weight changes as % from body weight on day of treatment start (day 0), as shown in FIG. 1-3. […]

[18] = system: A549; experiment: Colony formation (CFU) assay, A549; assay type: cell-based; details: A549, lung
Description: as §1, §2

[19] = system: HBCx-8 patient-derived breast xenograft; experiment: Anti-tumor activity, HBCx-8 patient-derived breast xenograft model; assay type: in vivo, Athymic nude mice; details: Compound 1 100 mg/kg p.o. once daily 42 days + cisplatin 5 mg/kg i.v. once weekly x3; HBCx-8 PDX, nude mice; FIG. 7A
Description: Six to nine week old female Athymic nude mice from Envigo were anesthetized and a 20 mm^3 tumor fragment placed subcutaneously via incision in the flank. […] Cisplatin was administered intravenously via tail vein once weekly for a total of 3 doses. Compound 1 was administered via oral gavage once daily for 42 days. Body weight and tumor volume were measured twice per week. Tumor volume was calculated as mean and standard error of the mean for each treatment group.

[20] = system: HBCx-11 patient-derived breast xenograft; experiment: Anti-tumor activity, HBCx-11 patient-derived breast xenograft model; assay type: in vivo, Athymic nude mice; details: Compound 1 100 mg/kg p.o. once daily 28 days + cisplatin 3 mg/kg i.v. once weekly x4; HBCx-11 PDX, nude mice; FIG. 8A
Description: Six to nine week old female Athymic nude mice from Envigo were anesthetized and a 20 mm^3 tumor fragment placed subcutaneously via incision in the flank. When tumors established to a tumor volume of between 75 and 196 mm^3 mice were randomized into groups of 3 and were assigned into the following groups: control, Compound 1 (100 mg/kg), cisplatin (3 mg/kg) or Compound 1 (100 mg/kg) and cisplatin (3 mg/kg) combination. Cisplatin was administered intravenously via tail vein once weekly for a total of 4 doses. Compound 1 was administered via oral gavage once daily for 28 days. Body weight and tumor volume were measured twice per week. Tumor volume was calculated as mean and standard error of the mean for each treatment group.

[21] = system: MDA-MB-436 cell line-derived breast xenograft; experiment: Anti-tumor activity, MDA-MB-436 cell line-derived breast xenograft model; assay type: in vivo; details: Compound 1 100 mg/kg p.o. once daily 28 days + cisplatin 2 mg/kg i.v. once weekly x4; MDA-MB-436, NOD SCID mice; FIG. 6A
Description: Six to eight week old female NOD SCID mice from Beijing Anikeeper Biotech CO, Ltd were implanted subcutaneously with 1×10^7 MDA-MB-436 cells. When tumors established to a tumor volume of approximately 240 mm^3 mice were randomized into groups of 5 and were assigned into the following groups: control, cisplatin (2 mg/kg), Compound 1 (100 mg/kg) or Compound 1 (100 mg/kg) and cisplatin (2 mg/kg) combination. Cisplatin was administered intravenously via tail vein once weekly for a total of 4 doses. Compound 1 was administered via oral gavage once daily for 28 days. Body weight and tumor volume were measured twice per week. Tumor volume was calculated as mean and standard error of the mean for each treatment group.

[22] = system: U251MG; experiment: Colony formation (CFU) assay, U251MG; assay type: cell-based; details: Homo sapiens, U-251, 336 h, nervous system, CFU ~14 days, wells with DMSO or 300 nM Compound 1, read-out: Chemotherapy nM IC50s
Description: as §1, §2

[23] = system: GOTO; experiment: Colony formation (CFU) assay, GOTO; assay type: cell-based; details: 336 h, nervous system, CFU ~14 days, wells with DMSO or 300 nM Compound 1, read-out: Chemotherapy nM IC50s
Description: as §1, §2

[24] = system: BECKER; experiment: Colony formation (CFU) assay, BECKER; assay type: cell-based; details: 336 h, CFU ~14 days, wells with DMSO or 300 nM Compound 1, read-out: Chemotherapy nM IC50s
Description: as §1, §2

[25] = CFU ~14 days, wells with DMSO or 300 nM Compound 1, read-out: Chemotherapy nM IC50s
[26] = chemotherapy agent in combination with 300 nM Compound 1

## N.N.[Cl][Pt][Cl] [Cis., cisplatin]
[1]; [25]
  IC50: 598 nM
[1]; [26]
  synergy score: (12)
[2]
  IC50: 1260 nM and 895 nM
[3]; [25]
  IC50: > 316 nM
[3]; [26]
  synergy score: (3)
[4]
  synergy of combination with USP1 inhibitor: synergy was detected
[5]; [25]
  IC50: 734 nM
[5]; [26]
  synergy score: (10)
[6]; [25]
  IC50: 308 nM
[6]; [26]
  synergy score: (−2)
[7]; [25]
  IC50: 212 nM
[7]; [26]
  synergy score: (1)
[8]; [25]
  IC50: 129 nM
[8]; [26]
  synergy score: (0)
[9]; [25]
  IC50: > 316 nM
[9]; [26]
  synergy score: (10)
[10]
  reported MTD: 6 mg/kg
[11]; [25]
  IC50: 473 nM
[11]; [26]
  synergy score: (−1)
[12]
  IC50: 97 nM and 130 nM
[13]; [25]
  IC50: 1780 nM
[13]; [26]
  synergy score: 0
[14]; [25]
  IC50: 142 nM
[14]; [26]
  synergy score: (1)
[15]; [25]
  IC50: 894 nM
[15]; [26]
  synergy score: (1)
[16]; [25]
  IC50: > 1000 nM
[16]; [26]
  synergy score: (−1)
[17]
  combination MTD: 6 mg/kg
[18]; [25]
  IC50: > 316 nM
[18]; [26]
  synergy score: (11)

## COc1ncnc(C2CC2)c1-c1ncc2cnn(Cc3ccc(-c4nc(C(F)(F)F)cn4C(C)C)cc3)c2n1 [Compound 1, 6-(4-cyclopropyl-6-methoxypyrimidin-5-yl)-1-(4-(1-isopropyl-4-(trifluoromethyl)-1H-imidazol-2-yl)benzyl)-1H-pyrazolo[3,4-d]pyrimidine]
[19]
  anti-tumor activity (tumor volume) of combination versus single agents: more prolonged anti-tumor activity
[20]
  anti-tumor activity (tumor volume) of combination versus single agents: superior and more prolonged anti-tumor activity
[21]
  anti-tumor activity (tumor volume) of combination versus single agents: more prolonged anti-tumor activity

## Cn1nnc2c(C(N)=O)ncn2c1=O [Temozol., Temozolomide]
[22]
  IC50: < 1 nM
[23]
  IC50: < 1 nM
[24]
  IC50: < 1 nM
